Values quoted from earlier work as cited in US20220001038A1, “CONJUGATES FOR DETECTION OF AXILLARY LYMPH NODE METASTASES” (H. LEE MOFFITT CANCER CENTER AND RESEARCH INSTITUTE, INC., priority 2017, published 2022).

System: hCA IX and XII

SMILES: [N-]=[N+]=NCCCCCCOc1ccc(-c2nn(-c3ccccc3)cc2-c2nc3ccccc3[nH]2)cc1 [compound 6]
- affinity/selectivity for CAIX and CAXII (in words): inhibitor with hCA IX and XII selectivity
